Test system: tumor cell lines
Test: Cell growth inhibition assay (MTT), summary statements over several cell lines
Type: cell-based
Settings: glioblastoma cell lines; read-out: antiproliferative IC50
Experimental: Cells were plated in 96-well plates (100 µL/well) at the following concentrations: 30,000 cells/mL (HepG2, U87 MG, T98G, C6, LNCaP, PC3, and HT-29 cells) or 15,000 cells/mL (HeLa and MCF-7 cells). Previous experiments were performed to choose the optimal cell concentration (70–80% confluence) and avoid the formation of cell aggregates. Cells were incubated in complete DMEM or RPMI 1640 medium (see above) at 37 °C and 5% CO2 atmosphere for 24 h to allow for cell attachment to the plate. Then, every compound was added (10 µL/well) to a final concentration of 10 µM. Non-treated cells were used as negative controls. The antiproliferative activity of compounds was measured 72 h after the treatments using the MTT reagent (3-[4,5-dimethylthiazol-2-yl]-2,5-diphenyltetrazolium bromide), (MTT Thiazolyl Blue Tetrazolium Bromide, Sigma-Aldrich, St. Louis, MO, USA) dissolved in PBS at 5 mg/mL. Compounds showing antiproliferative effects at 10 µM were selected to determine their IC50 value. For that purpose, compounds were used at different concentrations ranging from 10^−10 to 10^−2 M. Measurements were performed in triplicate, and each experiment was repeated three times. The IC50 value was determined for every compound using Origin software (OriginLab, Washington, USA). To study the sensitivity to MDR efflux pumps of compounds, the IC50 values were determined by following the same procedure but in the presence of verapamil (final concentration of 10 µM).

IC50: 37 to 75 nM
Compound: COc1ccc2nc(N(C=O)Cc3cccnc3)sc2c1 [Compound 14, N-(6-methoxybenzo[d]thiazol-2-yl)-N-(pyridin-3-ylmethyl)formamide]

Reference: publication PMC10301603, “Potent and Selective Benzothiazole-Based Antimitotics with Improved Water Solubility: Design, Synthesis, and Evaluation as Novel Anticancer Agents” (Pharmaceutics, 2023)
